Target: T1, survivin (Homo sapiens, UniProt O15392)
T1 construct: transferred to the survivin1-142 construct used in the present study; His8 tag (pHIS8 vector, thrombin-cleavable); made in house; host or cells: E. coli BL21(DE3) star
Assay: Biolayer interferometry, immobilized EZH2 peptide, survivin as analyte
Assay type: binding
Protocol: EZH2_178-211 peptide from previous peptide microarray experiments were used as immobilized ligands using amine reactive second-generation biosensor (AR2G, Fortebio, Fremont, CA, USA). Ethanolamine was used to quench unbound AR2G surface to prevent non-specific interactions. The biosensor was incubated in MQ water for 15 minutes before use in the Octet instrument (Fortebio, Fremont, CA, USA) with the following settings: equilibration in water for 60 s and 1000 rpm shaking, activation in EDC/s-NHS for 300 s at 1000 rpm, peptide immobilization in immobilization buffer pH 6.0 (Fortebio) for 900 s and 1000 rpm (50 μM for the peptide), quenching with 1 M ethanolamine for 300 s and 1000 rpm, baseline measurement in survivin SEC buffer for 600 s and 1000 rpm, association with survivin (100 nM, 33.3 nM, 11.1 nM, and 3.7 nM concentrations) as the experiment analyte for 600 s and 1000 rpm, and dissociation step in survivin SEC buffer for 1200 s and 1000 rpm. The assay was performed at 30°C. The reference wells and reference biosensors were subtracted.
Δλ(t) values were converted to dimensionless quantities by dividing the wavelength shifts with 1 nm prior to the analysis. To develop the model, we tentatively assumed Langmuir’s 1:1 model.[85] The kinetic modelling was performed with the pymc3 python package[66] using a Bayesian model: p(KD,app|lower=10^−15,upper=10^−3)=1/upper−lower p(k−1|lower=10^−20,upper=10)=1/upper−lower k1=k−1/KD,app p(A|lower=10^−6,upper=10)=1/upper−lower p(ε|lower=10^−6,upper=1)=1/upper−lower p(Δλ(0)|μ=⟨Δλi⟩,σ=1/10∑(Δλi−⟨Δλi⟩)^2/n)=1/2πσe^−1/2σ(Δλ(t)−μ)^2;Δλ(0)∈[10^−20,+∞]
The association and dissociation phases were modelled simultaneously, and the probability of wavelength shift during association phase was modeled as: p(Δλ(t)|μ=Ac/KD,app+c(1−e^−(k1c+k−1)t),σ=ε)=1/2πσe^−1/2σ(Δλ(t)−μ)^2
The probability of wavelength shift during the dissociation phase was modelled as: p(Δλ(t)|μ=Δλ(0)e^−k−1t,σ=ε)=1/2πσe^−1/2σ(Δλ(t)−μ)^2, where A and k1 are the amplitude and rate constant of the exponential association process, respectively. The concentration of the analyte is c and KD,app is the apparent dissociation constant. The dissociation rate constant is marked with k-1. ε represents the standard deviation of Δλ(t) . The total amplitude of wavelength shift is the wavelength shift at the beginning of the dissociation phase ( Δλ(0) ). Its prior distribution is modeled by a truncated normal distribution with parameters based on an empirical Bayes estimate of the starting observations. The data points in the interval 0 to 1 s are represented by the index i. The residual plots from the Bayesian model used in the BLI experiment with peptide EZH2_172-211 and survivin are shown in Figure S6.

T1 sequence (O15392 whole entry): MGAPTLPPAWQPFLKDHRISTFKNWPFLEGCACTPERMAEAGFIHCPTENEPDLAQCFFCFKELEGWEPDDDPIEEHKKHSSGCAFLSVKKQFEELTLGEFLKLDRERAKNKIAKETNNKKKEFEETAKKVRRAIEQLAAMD

VELVNALGQYNDDDDDDDGD DPEEREEKQKDLEDHRDDKE [EZH2_172-211, PRC2-derived peptide, EZH2 residues 172–211, synthesized by Biomatik]
BLI interaction (in words) (EZH2_172-211-coated sensors, survivin 100, 33 and 11 nM): Survivin interacted with EZH2_172-211-coated sensors at concentrations of 100, 33, and 11 nM
apparent dissociation constant (in words) (summary of posterior parameters, when the apparent dissociation constant is well defined): nanomolar interaction
A (amplitude of association) (survivin 3.7 nM, posterior mean ± SD): 0.18 ± 0.21 nm
A (amplitude of association) (survivin 33 nM, posterior mean, SD 1.8×10-4): 0.11 nm
A (amplitude of association) (survivin 100 nM, posterior mean, SD 1.1×10-4): 0.23 nm

— article PMC10391610, “Survivin prevents the polycomb repressor complex 2 from methylating histone 3 lysine 27” (iScience, 2023)
